The source of these data is patent US4977151A, “Ethanone oximes and pharmaceutical compositions thereof” (Mitsubishi Kasei Corporation, priority 1987, dated 1990).

Counter-ions that a name gives are not always drawn.

One experiment concerns stress-induced gastric ulcer. Nature of the experiment: Anti-stress ulcer test: inhibition of stress-induced gastric ulcer in rats. The experiment is classed as in vivo, rat (Douryu male rats). The following applies: Rattus norvegicus, po, 15 h, read-out: Inhibition Rate of Stress-Induced Ulcer (%). As to the method: Anti-stress ulcer tests were conducted as described below. Douryu non-fasted male rats (Shizuoka Laboratory Animal Center, body weight: 220-250 g), five in each group, were immobilized within a stress cage made of wire net and immersed in a water bath at 22 ±1° C. to a depth of xiphoid for loading them with stresses. The rats were clubbed to death after 15 hours and their stomachs were extirpated. After injecting about 15 ml of an aqueous 1% formalin solution into each of the stomachs, they were immersed in an aqueous 1 % formalin solution for about 10 minutes and fixed. After fixation, the stomachs were incised along the greater curvature. The longer diameter of each ulcer generated in the glandular portion was measured under stereomicroscope (X10) and the sum of them was defined to be an ulcer coefficient (mm). Chemicals to be tested were suspended in an aqueous 1 % gum arabic solution and orally administrated at a dose of 2 ml/kg, 30 min before the stress loading. For the control group, an aqueous 1 % gum arabic solution only was administrated, and their ulcer coefficient was compared to that of the group administrated with the tested chemicals to calculate the suppression rate of the tested chemicals. The dosage was 50 mg/kg for each of the compounds. The test compounds in the table are identified in corresponding Examples hereinafter described.
As for `CN=C(NC#N)NCCSCc1nc[nH]c1C` [Cimethidine, reference compound], the inhibition in vivo at 200 mg/kg was 69.7%.

Still in this experiment, the particulars now being: Rattus norvegicus; 50 mg/kg, oral, 30 min before stress loading; water immersion stress 22 ±1° C., 15 hours; vs control group; read-out: Inhibition Rate of Stress-Induced Ulcer (%).
Regarding `CN1CCN(C/C(=N\O)c2ccc(Sc3ccccc3)cc2)CC1` [Example 1, (Z)-2-(4-methyl-piperazin-1-yl)-1-(4-phenylthio-phenyl)-ethanone oxime hydrochloride], the inhibition in vivo at 50 mg/kg was determined as 76.9%. `CN1CCN(C/C(=N\O)c2ccc(C3CCCCC3)cc2)CC1` [Example 3, (Z)-2-(4-methylpiperazin-1-yl)-1-(4-cyclohexyl-phenyl)-ethanone oxime]: the inhibition in vivo at 50 mg/kg was determined as 59.7%. Same read-out and setting: the same measure for `CN1CCN(C/C(=N\O)c2ccc(Cc3ccccc3)cc2)CC1` [Example 5, (Z)-2-(4-methylpiperazin-1-yl)-1-(4-benzyl-phenyl)-ethanone oxime]: 100%; for `CC(=O)N(c1ccccc1)c1ccc(/C(CN2CCN(C)CC2)=N/O)cc1` [Example 6, (Z)-2-(4-methylpiperazin-1-yl)-1-(4-(N-acetyl-N-phenylamino)-phenyl)-ethanone oxime]: 85.7%; for `CN1CCN(C/C(=N\O)c2ccc(N(c3ccccc3)c3ccccc3)cc2)CC1` [Example 7, (Z)-2-(4-methylpiperazin-1-yl)-1-(4-diphenylamino-phenyl)-ethanone oxime]: 74.6%.

Turning to `CN1CCN(C/C(=N\O)c2ccc(CCc3ccccc3)cc2)CC1` [Example 8, (Z)-2-(4-methylpiperazin-1-yl)-1-(4-(2-phenylethyl)-phenyl)-ethanone oxime], the inhibition in vivo at 50 mg/kg turned out to be 65.7%.

Regarding `O/N=C(\CN1CCCCC1)c1ccc(CCc2ccccc2)cc1` [Example 11, (Z)-2-(piperidin-1-yl)-1-(4-(2-phenylethyl)-phenyl)-ethanone oxime], the inhibition in vivo at 50 mg/kg is 53%.

On to `CC(=O)N1c2ccccc2Sc2ccc(/C(CN3CCCCC3)=N/O)cc21` [Example 13], for which the inhibition in vivo at 50 mg/kg was 100%. With `CN1CCN(C/C(=N\O)c2ccc3c(c2)Sc2ccccc2S3)CC1` [Example 14], the inhibition in vivo at 50 mg/kg turned out to be 51.9%. Consider `CC1c2ccccc2CCc2ccc(/C(CN3CCN(C)CC3)=N/O)cc21` (centres unmarked) [Example 18, (Z)-2-(4-methylpiperazin-1-yl)-1-(10,11-dihydro-5H-5-methyldibenzo[a,b]cyclohepten-3-yl)-ethanone oxime], for which the inhibition in vivo at 50 mg/kg came out at 100%. On to `CCC1c2ccccc2CCc2ccc(/C(CN3CCN(C)CC3)=N/O)cc21` (centres unmarked) [Example 19, (Z)-2-(4-methylpiperazin-1-yl)-1-(10,11-dihydro-5H-5-ethyldibenzo[a,b]cyclohepten-3-yl)-ethanone oxime], for which the inhibition in vivo at 50 mg/kg amounted to 90.7%.

On to `CN1CCN(C/C(=N\O)c2ccc(S(=O)(=O)c3ccccc3)cc2)CC1` [Example 20, (Z)-2-(4-methylpiperazin-1-yl)-1-(4-phenylsulfonyl-phenyl)-ethanone oxime], for which the inhibition in vivo at 50 mg/kg was found to be 80.3%. Same read-out and setting: the same measure for `CN1CCN(C/C(=N\O)c2ccc3c(c2)Nc2ccccc2S3)CC1` [Example 22, (Z)-2-(4-methylpiperazin-1-yl)-1-(4-phenothiazin-2-yl)-ethanone oxime]: 50.6%; for `CN1CCN(C/C(=N\O)c2ccc(-n3ccnc3)cc2)CC1` [Example 23, (Z)-2-(4-methylpiperazin-1-yl)-1-(4-(imidazol-1-yl)phenyl)-ethanone oxime]: 50.5%; for `O/N=C(\CN1CCCCC1)c1ccc(-n2ccnc2)cc1` [Example 24, (Z)-2-(piperidin-1-yl)-1-(4-(imidazol-1-yl)-phenyl)-ethanone oxime]: 41.5%. With `CN1CCN(C/C(=N\O)c2ccc(NS(=O)(=O)c3ccccc3)cc2)CC1` [Example 31, (Z)-2-(4-methylpiperazin-1-yl)-1-(4-benzenesulfonyl-amino-phenyl)-ethanone oxime], the inhibition in vivo at 50 mg/kg amounted to 48.4%. For the compound `CN1CCN(C/C(=N\O)c2ccc(OCc3ccccc3)cc2)CC1` [Example 33, (Z)-2-(4-methyl-piperazin-1-yl)-1-(4-benzyloxy-phenyl)-ethanone oxime hydrochloride], the inhibition in vivo at 50 mg/kg was 41.4%. Turning to `CCOc1cc(CCc2ccccc2)ccc1/C(CN1CCN(C)CC1)=N/O` [Example 34, (Z)-2-(4-methylpiperazin-1-yl)-1-(2-ethoxy-4-(2-phenylethyl)-phenyl)-ethanone oxime hydrochloride], the inhibition in vivo at 50 mg/kg was 100%. The same measure, in the same setting: to `CC(C)Oc1ccccc1CCc1ccc(/C(CN2CCN(C)CC2)=N/O)cc1` [Example 40, (Z)-2-(4-methylpiperazin-1-yl)-1-(4-(2-(2-isopropoxy-phenyl)-ethyl)-phenyl)-ethanone oxime] belongs 41.9%.
